Measurements reported in patent US20210254272A1, “TEXTILES HAVING ANTIMICROBIAL PROPERTIES” (Livinguard AG, priority 2015, published 2021).

Experiment: Leaching test: 100 g fabric soaked in 10 liters stagnant distilled water, 3 days (72 hours)
Assay type: physicochemical
Conditions: for Leaching of active ingredients / Leaching Test-Leaching of active ingredients: pad process; for Leaching of active ingredients: cured 180° C. 2 min; for Leaching Test-Leaching of active ingredients: 2 min
Protocol: The test procedure for leaching was as follows: 100 g (grams) of fabric as well as control fabrics were soaked in 10 liters of stagnant distilled water in a closed wide mouth jar. After 3 days (72 hours), the water samples were tested for leached substances as per standard analytical methods.
The test procedure for leaching was as follows: 100 g (grams) of fabric as well as control fabrics were soaked in 10 liters of stagnant distilled water in a closed wide mouth jar. After 3 days (72 hours), the water samples were tested for leached substances as per standard analytical methods. A weight of 100 g fabric was chosen because in the preferred embodiment of the water filter as described further below, each filter comprises a strip of fabric with 210 g/m^2, 3 meters long and 0.16 meters wide, which corresponds to 100 g of fabric.

## CCCCCCCCCCCCCCCCCC[N+](C)(C)CCC[Si](OC)(OC)OC [Organosilane, dimethyloctadecyl[3-(trimethoxysilyl)propyl] ammonium chloride]
Exhaust 80° C., 60 min, dosage 1% o.w.f (test up to 5% o.w.f)
  Leaching of active ingredients (in ppm): 3 ppm
Exhaust 80° C., 60 min, dosage 2% o.w.f
  Leaching of active ingredients (in ppm): 22 ppm
Exhaust 80° C., 60 min, dosage 3% o.w.f
  Leaching of active ingredients (in ppm): 38 ppm
Exhaust 80° C., 60 min, dosage 4% o.w.f
  Leaching of active ingredients (in ppm): 52 ppm
Exhaust 80° C., 60 min, dosage 5% o.w.f
  Leaching of active ingredients (in ppm): 72 ppm
Exhaust 80 ° C., solution dosage 1% o.w.f, process time 10 min
  Leaching of active ingredients (in ppm): 40 ppm
Exhaust 80 ° C., solution dosage 1% o.w.f, process time 20 min
  Leaching of active ingredients (in ppm): 29 ppm
Exhaust 80 ° C., solution dosage 1% o.w.f, process time 30 min
  Leaching of active ingredients (in ppm): 25 ppm
Exhaust 80 ° C., solution dosage 1% o.w.f, process time 40 min
  Leaching of active ingredients (in ppm): 18 ppm
Exhaust 80 ° C., solution dosage 1% o.w.f, process time 50 min
  Leaching of active ingredients (in ppm): 15 ppm
Exhaust 80 ° C., solution dosage 1% o.w.f, process time 55 min
  Leaching of active ingredients (in ppm): 6 ppm
Exhaust 80 ° C., solution dosage 1% o.w.f, process time 60 min
  Leaching of active ingredients (in ppm): 2 ppm
Exhaust 80 ° C., solution dosage 1% o.w.f, process time 70 min
  Leaching of active ingredients (in ppm): 3 ppm
Exhaust 80 ° C., solution dosage 1% o.w.f, process time 80 min
  Leaching of active ingredients (in ppm): 4 ppm
Exhaust 80 ° C., solution dosage 1% o.w.f, process time 90 min
  Leaching of active ingredients (in ppm): 7 ppm
From Experimental examples I.1 and I.4
  limit on the quantity of the agent that can be adhered to the textile in a non-leaching or substantially non-leaching manner: about 0.7 % o.w.f.
Mixture 1 gm/lit each
  Leaching of active ingredients: 11 ppm
Mixture 1 gm/lit each, after Washing
  Leaching of active ingredients: 0.2 ppm
Mixture 5 gm/lit each
  Leaching of active ingredients: 22 ppm
Mixture 5 gm/lit each, after Washing
  Leaching of active ingredients: 0.5 ppm
Mixture 10 gm/lit each
  Leaching of active ingredients: 32 ppm
Mixture 10 gm/lit each, after Washing
  Leaching of active ingredients: 0.7 ppm
Single agent 5 gm/lit, curing 120° C.
  Leaching Test-Leaching of active ingredients: 8 ppm
Single agent 5 gm/lit, curing 140° C.
  Leaching Test-Leaching of active ingredients: 6 ppm
Single agent 5 gm/lit, curing 150° C.
  Leaching Test-Leaching of active ingredients: 5 ppm
Single agent 5 gm/lit, curing 160° C.
  Leaching Test-Leaching of active ingredients: 3 ppm
Single agent 5 gm/lit, curing 180° C.
  Leaching Test-Leaching of active ingredients: 1 ppm
Single agent 10 gm/lit, curing 120° C.
  Leaching Test-Leaching of active ingredients: 17 ppm
Single agent 10 gm/lit, curing 140° C.
  Leaching Test-Leaching of active ingredients: 13 ppm
Single agent 10 gm/lit, curing 150° C.
  Leaching Test-Leaching of active ingredients: 10 ppm
Single agent 10 gm/lit, curing 160° C.
  Leaching Test-Leaching of active ingredients: 9 ppm
Single agent 10 gm/lit, curing 180° C.
  Leaching Test-Leaching of active ingredients: 1 ppm
Solution dosage 0.10% o.w.f, exhaust temperature 40° C., process time 60 min
  Leaching of active ingredient (in ppm): 0 ppm
Solution dosage 0.10% o.w.f, exhaust temperature 60° C., process time 60 min
  Leaching of active ingredient (in ppm): 0 ppm
Solution dosage 0.10% o.w.f, exhaust temperature 65° C., process time 60 min
  Leaching of active ingredient (in ppm): 0 ppm
Solution dosage 0.10% o.w.f, exhaust temperature 70° C., process time 60 min
  Leaching of active ingredient (in ppm): 0 ppm
Solution dosage 0.10% o.w.f, exhaust temperature 75° C., process time 60 min
  Leaching of active ingredient (in ppm): 0 ppm
Solution dosage 0.10% o.w.f, exhaust temperature 80° C., process time 60 min
  Leaching of active ingredient (in ppm): 0 ppm
Solution dosage 0.10% o.w.f, exhaust temperature 85° C., process time 60 min
  Leaching of active ingredient (in ppm): 1 ppm
Solution dosage 0.10% o.w.f, exhaust temperature 90° C., process time 60 min
  Leaching of active ingredient (in ppm): 2 ppm
Solution dosage 0.10% o.w.f, exhaust temperature 95° C., process time 60 min
  Leaching of active ingredient (in ppm): 3 ppm
Solution dosage 0.20% o.w.f, exhaust temperature 40° C., process time 60 min
  Leaching of active ingredient (in ppm): 0 ppm
Solution dosage 0.20% o.w.f, exhaust temperature 60° C., process time 60 min
  Leaching of active ingredient (in ppm): 0 ppm
Solution dosage 0.20% o.w.f, exhaust temperature 65° C., process time 60 min
  Leaching of active ingredient (in ppm): 0 ppm
Solution dosage 0.20% o.w.f, exhaust temperature 70° C., process time 60 min
  Leaching of active ingredient (in ppm): 0 ppm
Solution dosage 0.20% o.w.f, exhaust temperature 75° C., process time 60 min
  Leaching of active ingredient (in ppm): 0 ppm
Solution dosage 0.20% o.w.f, exhaust temperature 80° C., process time 60 min
  Leaching of active ingredient (in ppm): 0 ppm
Solution dosage 0.20% o.w.f, exhaust temperature 85° C., process time 60 min
  Leaching of active ingredient (in ppm): 3 ppm
Solution dosage 0.20% o.w.f, exhaust temperature 90° C., process time 60 min
  Leaching of active ingredient (in ppm): 3 ppm
Solution dosage 0.20% o.w.f, exhaust temperature 95° C., process time 60 min
  Leaching of active ingredient (in ppm): 4 ppm
Solution dosage 0.50% o.w.f, exhaust temperature 40° C., process time 60 min
  Leaching of active ingredient (in ppm): 0 ppm
Solution dosage 0.50% o.w.f, exhaust temperature 60° C., process time 60 min
  Leaching of active ingredient (in ppm): 2 ppm
Solution dosage 0.50% o.w.f, exhaust temperature 65° C., process time 60 min
  Leaching of active ingredient (in ppm): 1 ppm
Solution dosage 0.50% o.w.f, exhaust temperature 70° C., process time 60 min
  Leaching of active ingredient (in ppm): 1 ppm
Solution dosage 0.50% o.w.f, exhaust temperature 75° C., process time 60 min
  Leaching of active ingredient (in ppm): 1 ppm
Solution dosage 0.50% o.w.f, exhaust temperature 80° C., process time 60 min
  Leaching of active ingredient (in ppm): 1 ppm
Solution dosage 0.50% o.w.f, exhaust temperature 85° C., process time 60 min
  Leaching of active ingredient (in ppm): 4 ppm
Solution dosage 0.50% o.w.f, exhaust temperature 90° C., process time 60 min
  Leaching of active ingredient (in ppm): 5 ppm
Solution dosage 0.50% o.w.f, exhaust temperature 95° C., process time 60 min
  Leaching of active ingredient (in ppm): 6 ppm
Solution dosage 0.80% o.w.f, exhaust temperature 40° C., process time 60 min
  Leaching of active ingredient (in ppm): 0 ppm
Solution dosage 0.80% o.w.f, exhaust temperature 60° C., process time 60 min
  Leaching of active ingredient (in ppm): 3 ppm
Solution dosage 0.80% o.w.f, exhaust temperature 65° C., process time 60 min
  Leaching of active ingredient (in ppm): 3 ppm
Solution dosage 0.80% o.w.f, exhaust temperature 70° C., process time 60 min
  Leaching of active ingredient (in ppm): 2 ppm
Solution dosage 0.80% o.w.f, exhaust temperature 75° C., process time 60 min
  Leaching of active ingredient (in ppm): 1 ppm
Solution dosage 0.80% o.w.f, exhaust temperature 80° C., process time 60 min
  Leaching of active ingredient (in ppm): 1 ppm
Solution dosage 0.80% o.w.f, exhaust temperature 85° C., process time 60 min
  Leaching of active ingredient (in ppm): 5 ppm
Solution dosage 0.80% o.w.f, exhaust temperature 90° C., process time 60 min
  Leaching of active ingredient (in ppm): 6 ppm
Solution dosage 0.80% o.w.f, exhaust temperature 95° C., process time 60 min
  Leaching of active ingredient (in ppm): 8 ppm
Solution dosage 1.00% o.w.f, exhaust temperature 40° C., process time 60 min
  Leaching of active ingredient (in ppm): 0 ppm
Solution dosage 1.00% o.w.f, exhaust temperature 60° C., process time 60 min
  Leaching of active ingredient (in ppm): 6 ppm
Solution dosage 1.00% o.w.f, exhaust temperature 65° C., process time 60 min
  Leaching of active ingredient (in ppm): 6 ppm
Solution dosage 1.00% o.w.f, exhaust temperature 70° C., process time 60 min
  Leaching of active ingredient (in ppm): 3 ppm
Solution dosage 1.00% o.w.f, exhaust temperature 75° C., process time 60 min
  Leaching of active ingredient (in ppm): 2 ppm
Solution dosage 1.00% o.w.f, exhaust temperature 80° C., process time 60 min
  Leaching of active ingredient (in ppm): 1 ppm
Solution dosage 1.00% o.w.f, exhaust temperature 85° C., process time 60 min
  Leaching of active ingredient (in ppm): 7 ppm
Solution dosage 1.00% o.w.f, exhaust temperature 90° C., process time 60 min
  Leaching of active ingredient (in ppm): 9 ppm
Solution dosage 1.00% o.w.f, exhaust temperature 95° C., process time 60 min
  Leaching of active ingredient (in ppm): 10 ppm
